Reference: ChEMBL document CHEMBL1201862, “PubChem BioAssay data set” (2004)
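These data come from cells grown in 96-well plates and exposed to compound for 48 hours at five concentrations. GI50 = concentration required for 50% inhibition of growth.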 The source made the active and inactive calls. Cut-off read from the data, not from the text of the source: active = GI50 up to about 1.1 µM and inactive = higher.

Tests used:
Test in all cases: inhibition of tumour cell growth, NCI panel, 48 h
[1] = tested on: 786-0
[2] = tested on: A498
[3] = tested on: A549
[4] = tested on: ACHN
[5] = tested on: BT-549
[6] = tested on: CAKI-1
[7] = tested on: CCRF-CEM
[8] = tested on: COLO 205
[9] = tested on: DU-145
[10] = tested on: EKVX
[11] = tested on: HCC 2998
[12] = tested on: HCT-116
[13] = tested on: HCT-15
[14] = tested on: HL-60
[15] = tested on: HOP-62
[16] = tested on: HT-29
[17] = tested on: Hs-578T
[18] = tested on: IGROV-1
[19] = tested on: K562
[20] = tested on: KM12
[21] = tested on: LOX IMVI
[22] = tested on: M14
[23] = tested on: MCF7
[24] = tested on: MDA-MB-231
[25] = tested on: MDA-MB-435
[26] = tested on: MDA-N
[27] = tested on: MOLT-4
[28] = tested on: Malme-3M
[29] = tested on: NCI-H226
[30] = tested on: NCI-H23
[31] = tested on: NCI-H460
[32] = tested on: NCI-H522
[33] = tested on: NCI/ADR-RES
[34] = tested on: OVCAR-3
[35] = tested on: OVCAR-4
[36] = tested on: OVCAR-5
[37] = tested on: OVCAR-8
[38] = tested on: PC-3
[39] = tested on: RPMI-8226
[40] = tested on: SF-268
[41] = tested on: SF-295
[42] = tested on: SF-539
[43] = tested on: SK-MEL-2
[44] = tested on: SK-MEL-5
[45] = tested on: SK-OV-3
[46] = tested on: SN12C
[47] = tested on: SNB-19
[48] = tested on: SNB-75
[49] = tested on: SR
[50] = tested on: SW-620
[51] = tested on: T47D
[52] = tested on: TK-10
[53] = tested on: U-251
[54] = tested on: UACC-257
[55] = tested on: UACC-62
[56] = tested on: UO-31
[57] = tested on: HOP-92
[58] = tested on: SK-MEL-28

Nc1c(C(=O)O)nnc2cc(Cl)c(Cl)cc12
GI50 [1]: > 100 µM (inactive)
GI50 [2]: 91 µM (inactive)
GI50 [3]: > 100 µM (inactive)
GI50 [4]: > 100 µM (inactive)
GI50 [5]: 72.6 µM (inactive)
GI50 [6]: > 100 µM (inactive)
GI50 [7]: > 100 µM (inactive)
GI50 [8]: > 100 µM (inactive)
GI50 [9]: > 100 µM (inactive)
GI50 [10]: > 100 µM (inactive)
GI50 [11]: > 100 µM (inactive)
GI50 [12]: > 100 µM (inactive)
GI50 [13]: > 100 µM
GI50 [14]: 57 µM (inactive)
GI50 [15]: > 100 µM (inactive)
GI50 [16]: > 100 µM (inactive)
GI50 [17]: > 100 µM (inactive)
GI50 [18]: > 100 µM (inactive)
GI50 [19]: > 100 µM (inactive)
GI50 [20]: > 100 µM (inactive)
GI50 [21]: 82 µM (inactive)
GI50 [22]: > 100 µM (inactive)
GI50 [23]: > 100 µM (inactive)
GI50 [24]: > 100 µM (inactive)
GI50 [25]: > 100 µM (inactive)
GI50 [26]: > 100 µM (inactive)
GI50 [27]: > 100 µM (inactive)
GI50 [28]: > 100 µM (inactive)
GI50 [29]: 47.8 µM (inactive)
GI50 [30]: > 100 µM (inactive)
GI50 [31]: > 100 µM (inactive)
GI50 [32]: > 100 µM (inactive)
GI50 [33]: > 100 µM (inactive)
GI50 [34]: > 100 µM (inactive)
GI50 [35]: > 100 µM (inactive)
GI50 [36]: > 100 µM (inactive)
GI50 [37]: > 100 µM (inactive)
GI50 [38]: > 100 µM (inactive)
GI50 [39]: > 100 µM (inactive)
GI50 [40]: > 100 µM (inactive)
GI50 [41]: > 100 µM (inactive)
GI50 [42]: > 100 µM (inactive)
GI50 [43]: > 100 µM (inactive)
GI50 [44]: > 100 µM (inactive)
GI50 [45]: > 100 µM (inactive)
GI50 [46]: > 100 µM (inactive)
GI50 [47]: > 100 µM (inactive)
GI50 [48]: > 100 µM (inactive)
GI50 [49]: > 100 µM (inactive)
GI50 [50]: > 100 µM (inactive)
GI50 [51]: > 100 µM (inactive)
GI50 [52]: > 100 µM (inactive)
GI50 [53]: > 100 µM (inactive)
GI50 [54]: > 100 µM (inactive)
GI50 [55]: > 100 µM (inactive)
GI50 [56]: 56.9 µM (inactive)

CNC1=C/C(=N/C2=CC(=N/C(=C\C#N)C(C)(C)O)/OC2(C)C)OC1(C)C
GI50 [1]: 11.8 µM (inactive)
GI50 [2]: 30.9 µM (inactive)
GI50 [3]: 15.5 µM (inactive)
GI50 [4]: 4.32 µM (inactive)
GI50 [5]: 29.6 µM (inactive)
GI50 [6]: 7.82 µM (inactive)
GI50 [7]: 3.08 µM (inactive)
GI50 [8]: 6.56 µM (inactive)
GI50 [9]: 12 µM (inactive)
GI50 [10]: 13.7 µM (inactive)
GI50 [11]: 29.2 µM (inactive)
GI50 [12]: 5.15 µM (inactive)
GI50 [13]: 5.31 µM
GI50 [14]: 2.01 µM (inactive)
GI50 [15]: 7.96 µM (inactive)
GI50 [57]: 11.9 µM (inactive)
GI50 [16]: 11.4 µM (inactive)
GI50 [17]: 35.1 µM (inactive)
GI50 [18]: 6.52 µM (inactive)
GI50 [19]: 3.12 µM (inactive)
GI50 [20]: 13.5 µM (inactive)
GI50 [21]: 5.51 µM (inactive)
GI50 [22]: 11.8 µM (inactive)
GI50 [23]: 5.82 µM (inactive)
GI50 [24]: 9.95 µM (inactive)
GI50 [25]: 22.6 µM (inactive)
GI50 [26]: 21.3 µM (inactive)
GI50 [27]: 2.31 µM (inactive)
GI50 [28]: 25.2 µM (inactive)
GI50 [29]: 20.8 µM (inactive)
GI50 [30]: 33.3 µM (inactive)
GI50 [31]: 5.97 µM (inactive)
GI50 [32]: 13 µM (inactive)
GI50 [33]: 40.4 µM (inactive)
GI50 [34]: 32.4 µM (inactive)
GI50 [35]: 27.2 µM (inactive)
GI50 [36]: 60.4 µM (inactive)
GI50 [37]: 9.84 µM (inactive)
GI50 [38]: 13.2 µM (inactive)
GI50 [39]: 4.43 µM (inactive)
GI50 [40]: 4.31 µM (inactive)
GI50 [41]: 23.9 µM (inactive)
GI50 [42]: 33.1 µM (inactive)
GI50 [58]: 33.2 µM (inactive)
GI50 [43]: 44.4 µM (inactive)
GI50 [44]: 14.9 µM (inactive)
GI50 [45]: 17.1 µM (inactive)
GI50 [46]: 14.5 µM (inactive)
GI50 [47]: 33 µM (inactive)
GI50 [48]: 6.76 µM (inactive)
GI50 [49]: 4.9 µM (inactive)
GI50 [50]: 5.4 µM (inactive)
GI50 [51]: 6.78 µM (inactive)
GI50 [52]: 21.3 µM (inactive)
GI50 [53]: 7.1 µM (inactive)
GI50 [54]: 43.3 µM (inactive)
GI50 [55]: 7.91 µM (inactive)
GI50 [56]: 5.77 µM (inactive)
